row,SMILES,melting point
1,COC(=O)c1ccc(-c2csc(-c3ccc4c(c3)C(C)(C)CCC4(C)C)c2)cc1,108 to 110 °C
2,CC(=O)c1cccc2ccc(CS(=O)(=O)N3CCOCC3)cc12,162 °C
3,COc1cc(CO)c(OC)cc1Cl,89 to 90 °C
4,NC(=O)CN1CCC1=O,112 to 113 °C
5,CCOC(=O)C1=C(N)C(OCC)=NS1(=O)=O,163 to 165 °C
6,O=C(O)C(Sc1nc2cc(Cl)ccc2s1)c1ccccc1 (centres undefined),190 to 192 °C
7,CCC12CCC3C4CCCC=C4CCC3C1CCC2=O (centres undefined),101 to 102 °C
8,CCCCc1ncc(/C=C/CC(=O)O)n1Cc1ccccc1Cl,135 to 137 °C
9,c1ccc(C(=C2CCNCC2)c2ccccc2)cc1,85 to 86 °C
10,CC(C)(C)OC(=O)N[C@@H](Cc1ccnc(C#N)c1)C(=O)OCc1ccccc1,74 to 76 °C
11,Cc1cc(C#CC(C)(C)O)cc(C)c1Oc1ccc([N+](=O)[O-])c(Nc2ccc(C#N)cc2)n1,114 to 116 °C
12,Nc1ccccc1NS(=O)(=O)c1cc(C(=O)O)cc(NCc2ccccc2)c1Oc1ccccc1,113 to 116 °C
13,O=C1Nc2cc(F)ccc2N2CCN(CCCCc3ccncc3)CC12 (centres undefined),262 to 264 °C
14,CCCCCCCCCCCCCCCCSC(=O)Nc1ccc(NC(=O)NS(=O)(=O)c2ccc(OC)cc2)cc1,197 °C
15,CCCCCCCCc1ccc(OC(=O)c2ccc([C@H]3CC[C@H](CCC)C3)cc2)cc1 (relative stereo),36 °C
16,CCCCCCCCN(C[C@H]1CC[C@@H](CN(CCCCCCCC)C(=O)Nc2ccc(N(C)C)cc2)CC1)C(=O)Nc1ccc(N(C)C)cc1,105 to 107 °C
17,Fc1cccc(Cl)c1-c1nn(-c2ccccc2Cl)c(=S)o1,112 to 114 °C
18,CCC1(CC)c2cc(CO)c(CO)cc2C(CC)(CC)N1Cc1ccccc1,155 to 158 °C
19,COc1ccc(-n2nnc(-c3ccc(Cl)c(Cl)c3)c2N)cc1,190 to 191 °C
20,Cc1cc(OCC(F)(F)F)c([N+](=O)[O-])c(OCC(F)(F)F)n1,72.8 to 73.2 °C
21,Clc1ncnc(Cl)c1I,135 to 136 °C
22,FC(F)(F)c1ccc(-c2ccc(CCl)cn2)cc1,73 °C
23,CSc1sc(C(=O)N(C)C2CCCCC2)c2c1-c1oncc1C(C)(C)C2,150 to 153 °C
24,O=C1c2ccccc2C(=O)N1CC(=O)N1c2ccccc2N(Cc2ccc3ccccc3n2)C(=O)[C@H]2CCC[C@H]21 (relative stereo),258 to 260 °C
25,CCn1ccc2nc(N3CCN(Cc4ccccc4)CC3)ncc2c1=O,116 to 118 °C

row,SMILES,melting point
1,CC(C)(C)OC(=O)Nc1cc(N2CCC(OC3CCCCO3)CC2)c(-c2ccc(F)cc2)cc1N (racemic),157 to 161 °C
2,COC(=O)Cc1ccc(N[C@@H](CCC(N)=O)C(=O)O)cc1,183 to 184 °C
3,CC(C)(C)OC(=O)N1CCN(C(=O)C(F)(F)F)CC1,66 to 68 °C
4,CCCOc1ccc(OC)cc1C1=NC(=O)C2=NC=NC2=N1,233 to 234 °C
5,COc1ccccc1COc1ccc(S(=O)(=O)c2ccc(C)nc2Nc2ccc(S(C)(=O)=O)cc2Cl)cc1,100 to 102 °C
6,O=C1CCC(N2C(=O)c3cccc(OCc4nc(CN5CCOCC5)cs4)c3C2=O)C(=O)N1 (centres undefined),210 to 212 °C
7,CCCN1N=C2C(=Cc3ccc(Cl)cc3)CS(=O)(=O)CC2C1c1ccc(Cl)cc1 (centres undefined),208 to 210 °C
8,N#CSc1nc(Nc2ccc(Cl)cc2)ncc1[N+](=O)[O-],240 to 242 °C
9,FC(F)(F)c1cccc(CNc2ncnc3ccccc23)c1,145 to 146 °C
10,Nc1c(CCO)cc(Cl)cc1C(O)c1ccccc1 (centres undefined),130 to 132 °C
11,Clc1ccc2[nH]c3c4c(Cl)cccc4nc-3cc2c1,221 to 222 °C
12,CCCCc1ccc(-c2ccc(CCc3ccc(Cl)cc3)cc2)cc1,129 °C
13,COc1cc2c(C)csc2c(Cl)c1Cl,122 to 124 °C
14,CC(CO)C1CCC2C3CCC4=CC(=O)CCC4(C)C3CCC12C (centres undefined),140 to 141 °C
15,CCOC(=O)c1cn([C@@H](C)CO)c2c(F)c(N3CCN(C)CC3)c(F)cc2c1=O,195 to 197 °C
16,CCCCc1c2c(nn1-c1ccccc1)c(Cl)nc1ccccc12,239 to 243 °C
17,COc1cccc([C@@H](c2ccc(C3CN(CCC(=O)O)C3)cc2)N2C[C@@H](C)N(Cc3ccccc3)C[C@@H]2C)c1,93 to 96 °C
18,CCCC(C)(O)C(=O)Nc1cc(Br)nc(OC)c1 (centres undefined),122 °C
19,CCOC(=O)C(=Cc1cc(OC)c(OC)cc1OC)C(=O)OCC,86 to 87 °C
20,O=C1CC(c2cccc3oc4c(c23)CCCC4)CC(=O)O1,139 to 140 °C
21,O=c1nc(-c2cccc(Cl)c2)c2cc(C(c3ccc(Cl)cc3)n3ccnc3)ccc2[nH]1 (centres undefined),255 °C
22,CCc1c([N+](=O)[O-])ccc2cc[nH]c12,50 °C
23,Cc1ccc(S(=O)(=O)NC(CSCC(=O)O)C(=O)O)cc1 (centres undefined),152 °C
24,C=C1CC(C(=O)O)NC(C(=O)O)C1 (centres undefined),> 250 °C
25,COC(=O)c1nc(N(C)C(C)=O)ccc1Oc1nc(OC)cc(OC)n1,119 to 121 °C

row,SMILES,melting point
1,CN(C)C(=O)Cn1c(-c2cccc(Br)c2)nc2cccnc21,144 to 146 °C
2,CCOC(=O)/C=C/c1cnn(C)c1-c1cccs1,73 to 74 °C
3,O=C(NCc1ccccn1)Nc1cc(N2CC(COc3ccccc3)OC2=O)ccn1 (centres undefined),155 to 156 °C
4,Cn1c(=O)c2ccccc2n(C)c1=S,184 °C
5,Cc1cc(Oc2c(Cl)cc(C(F)(F)F)cc2Cl)nn1C(=O)NCCBr,106 to 107 °C
6,CCOc1ccc(-c2cc(C(F)(F)F)n3ncc(-c4ccncc4)c3n2)cc1C(F)(F)F,233 °C
7,CSCC(=O)[C@H](CCc1ccccc1)NC(=O)[C@H](CC(C)C)NC(=O)OCc1ccccc1,119 to 120 °C
8,CC(=O)CCc1cccc(C(N)=O)c1,122 to 125 °C
9,CCOC(=O)CC(=O)c1cc(F)c(Br)c(F)c1F,51 to 59 °C
10,CSC1C(=O)Nc2c(Nc3ccc(Cl)cc3)cccc21 (centres undefined),190 to 192 °C
11,O=c1c2c(Cc3ccccc3)n[nH]c2c2cccnc2n1-c1cccc(C(F)(F)F)c1,226 to 228 °C
12,CCCn1ncc(C#N)c1N,85 to 90 °C
13,CC(=O)Nc1ccc(-n2ccnc2S(=O)Cc2ccccc2N2CCOCC2)nc1 (centres undefined),207 to 209 °C
14,Cc1ccc(S(=O)(=O)OCCc2cccc3c(S(=O)(=O)c4ccccc4)c[nH]c23)cc1,142 to 145 °C
15,Cc1cc(-c2cccc(C(F)(F)F)c2)n2nc(C(F)(F)F)nc2n1,133 to 134 °C
16,CC(C)(C)c1cc(C(C)(C)C)c2oc(-c3cccc([N+](=O)[O-])c3O)nc2c1,148 to 150 °C
17,O=C(CCC1CCCC1)Nc1ccc(N2CCC(NC[C@H](O)COc3cccc4[nH]c(=O)[nH]c34)CC2)cc1,140 to 144 °C
18,COCCCS(=O)(=O)NC(=O)CCc1ccc(OC(C)C)cc1Oc1ncc(C(F)(F)F)cc1Cl,114 to 115 °C
19,CC(C)[C@H](C[C@H](O)[C@H](C)NC(=O)OC(C)(C)C)C(=O)NCc1cccnc1,147 to 149 °C
20,Cc1cc(CN(Cc2ccsc2)c2sc(-c3ccc(C(F)(F)F)cc3)nc2C)cc(C)c1OC(C)(C)C(=O)O,90 to 100 °C
21,N#CCc1cc(O)cc2cc(-c3ccc(O)cc3)oc12,128 to 130 °C
22,Cc1[nH]cnc1CSCCNc1ncc(Cc2ccn(C)c(=O)c2)c(=O)[nH]1,202 to 204 °C
23,COc1cc2cc(CO)c(CO)c(-c3ccnc(Nc4ccccc4CCCO)c3)c2cc1OC,156 to 158 °C
24,COC(=O)c1cc(NS(C)(=O)=O)ccc1OC,82 to 83 °C
25,CC(C)(C)OC(=O)N[C@@H](Cc1ccccc1)[C@@H](O)C[C@@H](Cc1ccc(O)cc1)C(=O)N[C@H]1c2ccccc2C[C@H]1O,218 to 219 °C

row,SMILES,melting point
1,CN(C)CCN(C)C(=O)c1ccc2cc(-c3csc(N(C)S(=O)(=O)c4ccccc4)n3)c(=O)[nH]c2c1,144 to 148 °C
2,CCNC(=O)CSc1nc(Cl)cc(Nc2cccc(C)c2C)n1,191 to 192 °C
3,Cc1nc(-c2cc3cc(OCCNC[C@H](O)c4cccc(Cl)c4)ccc3o2)cs1,127 to 129 °C
4,CS(=O)(=O)c1cccc(-n2c(=O)c(CCCc3ccncc3)cc3cccnc32)c1,127 to 131 °C
5,O=C1Nc2cc(Cl)ccc2Nc2cscc21,212 to 213 °C
6,CN(C)C(=O)c1cc2ccc3c(c2cc1Cn1cncn1)C(C)(C)C(=O)O3,172 to 173 °C
7,O=P(O)(O)Oc1cccc(-c2cn3c(n2)sc2ccccc23)c1,205 to 208 °C
8,CCOC(=O)C(CC=C1CCN(c2ccccc2)C1=O)Nc1cc(Cl)ccc1I (centres undefined),132 to 134 °C
9,Cc1oc(-c2ccc(C(F)(F)F)cc2)nc1COc1ccc(CN(O)C(N)=O)cc1,146 to 147 °C
10,Clc1ccc2nncc(Cl)c2c1,111 to 113 °C
11,[N-]=[N+]=NCc1ccc2c(NC(=O)c3ccccc3)nccc2c1,125 to 129 °C
12,N#CC(c1ccc([N+](=O)[O-])cc1)c1ccc(Cl)cc1Cl (centres undefined),81 to 82.5 °C
13,CC(C)=CCCC(C)C1CCC2C3CC(O)C4CC(O)CCC4(C)C3CCC12C (centres undefined),188 to 190 °C
14,Clc1ncccc1-c1nnsc1-c1cccnc1Cl,146 to 148 °C
15,CC(Cc1ccc(F)cc1)(NC(=O)CN)c1ccc(F)cc1 (centres undefined),130 to 131 °C
16,CCCCn1cnc2c(SCc3ccc4nsc(Br)c4c3)ncnc21,118 to 119 °C
17,COCCOC1CCN(c2ccc(NC(=O)c3cnn(-c4ccc(Cl)cc4)c3C)cc2C#N)CC1,180 to 182 °C
18,CC(Oc1ccc(F)cc1Cl)c1ccnc2ncnn12 (centres undefined),89 to 91 °C
19,CONC(=O)c1ccccc1OCc1ccc(Cl)cc1Cl,100 to 102 °C
20,O=c1[nH]c2cc(Cl)ccc2c(=O)c(-c2ccc([N+](=O)[O-])cc2)c1O,310 to 312 °C
21,Cc1cc(C)cc(C(=O)N2CC[C@H](NCc3ccnc4ccccc34)C[C@H]2Cc2ccc(Cl)cc2)c1 (relative stereo),148 to 149 °C
22,Nc1cc(-c2ccoc2)ccc1Nc1cccc(-n2cccc2)c1,194 to 195 °C
23,"CCCCS(=O)(=O)NC1Cc2ccc(C3=NNC(=O)CC3)cc2C1 (single isomer, unassigned; (+))",173 to 174 °C
24,CC(C)(C)OC(=O)NCCNC(=O)c1ccc(Cl)cn1,106 to 108 °C

# From a melting point compilation (Tetko et al.; mined from patent text by program, amines drawn as free bases though some values may be those of a salt)
